From PubChem BioAssay (NCI)
“And” between values parts separate entries of the source, which are not always exact repeats. Equal values may be shown once.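 All cell lines were grown in 96-well plates and treated with compound for 48 hours. The concentration for 50% growth inhibition is given as GI50. Definition used: TGI = concentration required for complete inhibition of growth.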

Tests used:
Test in all cases: growth of human tumour cells (NCI), 48 h
MDA-MB-435 = system: MDA-MB-435
COLO 205 colon = system: COLO 205 colon
HL-60(TB) leukemia = system: HL-60(TB) leukemia
SN12C renal = system: SN12C renal
UO-31 renal = system: UO-31 renal
786-0 renal = system: 786-0 renal
SK-OV-3 ovarian = system: SK-OV-3 ovarian
MCF7 breast = system: MCF7 breast
SNB-19 CNS = system: SNB-19 CNS
SR leukemia = system: SR leukemia

SMILES | TGI (MDA-MB-435) | TGI (COLO 205 colon) | TGI (HL-60(TB) leukemia) | TGI (SN12C renal) | TGI (UO-31 renal) | TGI (786-0 renal) | TGI (SK-OV-3 ovarian) | TGI (MCF7 breast) | TGI (SNB-19 CNS) | TGI (SR leukemia) | GI50 (MDA-MB-435) | GI50 (COLO 205 colon) | GI50 (HL-60(TB) leukemia) | GI50 (SN12C renal) | GI50 (UO-31 renal) | GI50 (786-0 renal) | GI50 (SK-OV-3 ovarian) | GI50 (MCF7 breast) | GI50 (SNB-19 CNS) | GI50 (SR leukemia)
CC1=CC(=O)C2=C(C)CCC3C(C)C(=O)OC3C12 (centres undefined) | > 100 µM | > 100 µM | > 100 µM | > 100 µM | > 100 µM | > 100 µM | > 100 µM | > 100 µM | > 100 µM | > 100 µM |  |  |  |  |  |  |  |  |  | 
CCN(CC)c1ccc(/C=N/NC(=O)CSc2nc3ccccc3c(=O)n2CCc2ccc(S(N)(=O)=O)cc2)c(O)c1 | > 100 µM | > 100 µM | 6.44 µM | > 100 µM | > 100 µM | > 100 µM | > 100 µM | > 100 µM | > 100 µM | > 100 µM | 3.89 µM | 3220 nM | 1710 nM | 1860 nM | 2860 nM | 4460 nM | 2.72 µM | 1640 nM | 3.72 µM | 445 nM
CC(=O)c1ccc2c(c1)c1cc(C(C)=O)ccc1n2CCNC(C)C | 1.44 µM | 1.6 µM | 2.67 µM | 2.07 µM | 0.704 µM | 3.32 µM | 8.76 µM | 1.11 µM | 1.62 µM | 11.4 µM | 0.364 µM | 331 nM | 362 nM | 325 nM | 200 nM | 456 nM | 1.25 µM | 294 nM | 0.3 µM | 142 nM
C/C(=N\NC(=S)N1CCCCC1)c1ccccn1 | 5.89 µM | 0.041 µM | 2.64 µM | 14.3 µM | 2.29 µM | 2.39 µM | 1.94 µM | 6.13 µM | 14.5 µM | 10.7 µM | 0.208 µM | < 10 nM | 52.7 nM | 290 nM | < 12.3 nM | 51.7 nM | 0.213 µM | < 10 nM | 0.158 µM | < 15.7 nM
COC[C@@H](N=C1NC(=O)/C(=C/c2ccc3ncccc3c2)S1)c1ccccc1 | > 25 µM | > 25 µM | 19.2 µM | > 25 µM | > 25 µM | > 25 µM | > 25 µM | > 25 µM | > 25 µM | 15.6 µM | 9.12 µM | 10800 nM | 6390 nM | 8520 nM | 6700 nM | 10200 nM | 9.35 µM | 7240 nM | 8.82 µM | 3640 nM
O=C(Cc1ccc(/C=C/C(=O)c2ncc[nH]2)cc1)Nc1ccc(F)cc1 | 20.1 µM | 10.8 µM | 10.6 µM | 27.1 µM | 7.06 µM | 5.81 µM | > 33.3 µM | 4.62 µM | 14.9 µM | 6.41 µM | 4.07 µM | 4540 nM | 1660 nM | 2930 nM | 2640 nM | 1370 nM | 9.38 µM | 995 nM | 1.58 µM | 1110 nM
O=c1c2c(=NCCN3CCCC3)cc3c(=O)n(CCCN4CCOCC4)c(=O)c4c(-c5ccc(CN6CCCC6)cc5)cc(c(O)n1CCCN1CCOCC1)c2c4-3 | 0.147 µM | 0.327 µM | 1.64 µM | 1.37 µM | 0.231 µM | 0.383 µM | 1.43 µM | 0.446 µM | 1.2 µM | 11.1 µM | 0.0395 µM | 64.1 nM | 231 nM | < 22.1 nM | 38 nM | 41.6 nM | 0.086 µM | 28.4 nM | 0.054 µM | < 10.8 nM
Fc1cccc(COc2ccc(Nc3ncnc4sc(-c5cccs5)cc34)cc2Cl)c1 | > 19.1 µM | 10.5 µM | > 25 µM | > 25 µM | > 24.1 µM | > 18.7 µM | 9.69 µM | 8.42 µM | 12 µM | > 25 µM | 3.61 µM | 1420 nM | > 25000 nM | 9200 nM | 5780 nM | 8340 nM | 3.47 µM | 750 nM | 5.33 µM | > 16400 nM
CCN(CCCN(C)C)Cc1cc(I)cc(C)c1O | 31.6 µM | 36.8 µM | 41.5 µM | > 100 µM | > 100 µM | 40 µM | > 100 µM | 35.8 µM | 63.1 µM | 14.5 µM | 15.7 µM | 18900 nM | 20000 nM | 59900 nM | 35600 nM | 18600 nM | 35.3 µM | 17400 nM | 26.9 µM | 1040 nM
CN(c1ncccc1CNc1nc(Nc2ccc3c(c2)CC(=O)N3)ncc1C(F)(F)F)S(C)(=O)=O | 11.4 µM and > 10 µM | 2.08 µM and 3.03 µM | 5.72 µM and 5.51 µM | > 100 µM | > 28.7 µM | > 83.8 µM | > 100 µM | > 27 µM | > 100 µM | 4.91 µM and 5.26 µM | 1.46 µM and 2.74 µM | 601 nM and 1110 nM | 2020 nM and 1380 nM | 2880 nM and 2950 nM | 2880 nM and 2820 nM | 3020 nM and 2510 nM | 5.04 µM and 4.61 µM | 948 nM and 1100 nM | 2.75 µM and 2.89 µM | 606 nM and 1540 nM
O=C(Oc1cccc2cccnc12)c1cc2c(cc1Cl)SC(N(c1ccc(F)cc1)S(=O)(=O)c1ccc(Br)s1)=NS2(=O)=O | > 100 µM | 50.8 µM | > 100 µM | > 100 µM | > 100 µM | > 100 µM | > 100 µM | 44 µM | > 100 µM | > 100 µM | 26 µM | 18500 nM | 26400 nM | 24900 nM | 34200 nM | > 100000 nM | > 100 µM | 21300 nM | 28.8 µM | 46200 nM
O=c1[nH]c2ccccc2c2ccccc12 | > 100 µM | > 100 µM | > 100 µM | > 100 µM | > 100 µM | > 100 µM | > 100 µM | > 100 µM | > 100 µM | > 100 µM | > 100 µM | > 100000 nM | > 100000 nM | > 100000 nM | 70900 nM | > 100000 nM | 23.6 µM | > 100000 nM | > 100 µM | 77300 nM
Cc1cc2nc3c4cc(O)ccc4n(CCN(C)C)c3nc2cc1C | 2.36 µM | 3.99 µM | 1.76 µM | 12.4 µM | 2.07 µM | 2.42 µM | > 61 µM | 3.26 µM | 12.3 µM |  | 1.07 µM | 698 nM | 364 nM | 586 nM | 292 nM | 929 nM | 1.8 µM | 450 nM | 0.609 µM | 309 nM
COc1ccc2c(c1OC)C[C@@H]1c3c(cc4c(c3-2)OCO4)CCN1C | > 100 µM | 40.3 µM | 27.2 µM | > 100 µM | 45.4 µM | 63.9 µM | 58.4 µM | > 100 µM | > 100 µM | 54.3 µM |  |  |  |  |  |  |  |  |  | 
CCOC(=O)C1Cc2c(cc3c4c(cccc24)N(C(C)=O)C3)N(C)C1 (centres undefined) | 7.04 µM | > 100 µM | > 100 µM | > 100 µM | > 100 µM | > 100 µM | > 100 µM | > 100 µM | > 100 µM | > 100 µM |  |  |  |  |  |  |  |  |  | 
CC(C)c1[nH]nc(C(N)=O)c1N=NN(C)C | > 100 µM | > 100 µM | > 100 µM | > 100 µM | 2.19 µM | > 100 µM | > 100 µM | > 100 µM | > 100 µM | 71.2 µM |  |  |  |  |  |  |  |  |  | 
C=C1CC[C@@H]2[C@](C)(COC(C)=O)[C@H](OC(C)=O)CC[C@@]2(C)[C@@H]1CC(Nc1ccc(S(=O)(=O)NC(C)=O)cc1)C1=CCOC1=O (some centres undefined) | 10.6 µM | 4.82 µM | 12 µM | 5.4 µM | 13.2 µM | 7.98 µM | 18.7 µM | 11.3 µM | 18.9 µM | 18.1 µM | 2.79 µM | 1810 nM | 2450 nM | 1780 nM | 3710 nM | 2440 nM | 9.31 µM | 1920 nM | 8.19 µM | 991 nM
CCC(C)[C@H]1O[C@]2(CC[C@@H]1C)C[C@@H]1C[C@@H](C/C=C(\C)[C@@H](OC3C[C@H](OC)C(O[C@H]4C[C@H](OC)[C@@H](O)[C@H](C)O4)[C@H](C)O3)[C@@H](C)/C=C/C=C3\CO[C@@H]4[C@H](O)C(C)=C[C@@H](C(=O)O1)[C@]34O)O2 (some centres undefined) | 15.9 µM | 3.1 µM | 5.03 µM | 11.4 µM | 10.2 µM | 14 µM | 5.04 µM | 10.8 µM | 15.6 µM | 33.7 µM | 3.89 µM | 1630 nM | 2180 nM | 3080 nM | 1850 nM | 3660 nM | 2 µM | 3020 nM | 3.75 µM | 5790 nM
